# Assay results as given in patent publication US20260248771A1, “VALBENAZINE, A VMAT2 INHIBITOR, AS A FREE BASE A TOSYLATE OR DITOSYLATE SALT, FOR USE IN THE TREATMENT OF CHOREA ASSOCIATED WITH HUNTINGTON'S DISEASE” (Neurocrine Biosciences, Inc., priority 2022, published 2026).
# Legend:
# subjects with HD [1] = experiment: Phase 3 study: Clinical Global Impression of Change (CGI-C) response status; type: in vivo, human
# Source text: As used herein, “Clinical Global Impression of Change” or CGI-C refers to a rating instrument based on a 7-point scale (range: 1=very much improved to 7-very much worse) that can be used to rate the overall global improvement of chorea since the initiation of study drug dosing. This scale is a modification of a scale developed by the Psychopharmacology Research Branch of the National Institute of Mental Health to rate the subject's overall improvement in clinical disorder and provides a global evaluation of improvement over time from the clinician's perspective.
# In certain embodiments, the method is effective to result in an improvement in Clinical Global Impression of Change (CGI-C) response status, wherein subjects whose score is either a 1 (“very much improved”) or a 2 (“much improved”) in CGI-C were classified as responders. In certain embodiments, at least about 9% of subjects were classified as responders. In certain embodiments, at least about 10%, such as at least about 15%, at least about 20%, at least about 25%, or at least about 30% of subjects were classified as responders. In certain embodiments, at least about 25%, or at least about 30% of subjects were classified as responders after 12 weeks of treatment.
# (§1) A Phase 3, randomized, double-blind, placebo-controlled study to evaluate the efficacy, safety, and tolerability of once-daily valbenazine in subjects with HD was conducted. The study included a 4-week screening period, an 8-week dose-adjustment period, a 4-week maintenance period, and a final study visit 2 weeks following the final dose of study drug.
# Secondary endpoints included: • Clinical Global Impression of Change (CGI-C) response status ([…] of “very much improved” or “much improved”) at Week 12; • Patient Global Impression of Change (PGI-C) response status ([…] of “very much improved” or “much improved”) at Week 12; • Change from baseline to Week 12 in the Quality of Life in Neurological Disorders Upper Extremity Function; and • Change from baseline to Week 12 in the Neuro-QoL Lower Extremity Function.
# Exploratory endpoints included: • Wearable movement sensors (in select sites; optional participation) using MC10 Inc., BIOSTAMP® NPOINT® system • Huntington Disease Health Index • Changes from the screening period baseline to each postbaseline study visit (Weeks 2 through 12) in the TMC based on site assessments • Changes from the screening period baseline to maintenance (the average of the Week 10 and Week 12 assessments) in the TMC based on video recording central rater assessments • CGI-C response at Weeks 2 through 10 • PGI-C response at Weeks 2 through 10 • The change from baseline to Weeks 4, 8, and 10 in the Neuro-QoL Upper Extremity Function T-score. • The change from baseline to Weeks 4, 8, and 10 in the Neuro-QoL Lower Extremity Function T-score • CGI-S at Weeks 2 through 12 • PGI-S at Weeks 2 through 12 • SF-36 at Week 12 • HD-HI at Week 10 and Week 12 • EQ-5D-5L at Week 10 and Week 12 • UHDRS scores for motor, behavior, and functional capacity assessment at Weeks 2 through 12 • Other UHDRS scores including functional assessment and independence scale at Week 12 • AS at Week 12 • Change from screening period in physical activity by movement sensors at the Week 10 visit period
# subjects with HD [2] = experiment: Phase 3 placebo-controlled study: UHDRS total maximal chorea (TMC) score; type: in vivo, human; settings: for TMC score LS mean difference between treatment groups (valbenazine minus placebo): change from screening period baseline
# Source text: As used herein, “Unified Huntington Disease Rating Scale” or “UHDRS” is the standard clinical assessment tool in Huntington disease. The UHDRS is divided into four domains: motor performance, cognitive function, behavioral abnormalities, and functional abilities. The motor section consists of 31 items assessing oculomotor, bradykinesia/rigidity, dystonia, chorea, and gait/balance. The items are rated from zero to four, with zero indicating normal findings and four indicating severe abnormalities. The range of the Total Motor Score (TMS) is 0 to 124, with higher scores indicating more severe motor impairment. The cognitive component includes the verbal fluency test, the symbol digit modalities test, and the Stroop test (color naming, word reading, and interference). Lower scores indicate worse cognitive performance. The behavioral assessment measures the frequency and severity of 11 items, which are rated from zero (almost never/absent) to four (almost always/severe). The items assess depression, anxiety, aggression, psychosis, and other behavioral abnormalities. The behavioral score ranges from 0 to 88, with higher scores indicating more severe psychiatric abnormalities. The functional domain comprises three components, namely the total functional capacity (TFC), the functional assessment scale (FAS), and the independence scale (IS). The TFC consists of five items (occupation, finances, domestic chores, activities of daily living, and care level) and ranges from 0 to 13. The FAS includes 25 yes/no questions about common daily tasks (range 0-25). The Independence Score (IS) measures the level of independence by one single score between 10 and 100. For all functional scores, lower scores indicate a worse function. See, Huntington Study Group, Unified Huntington Disease Rating Scale: reliability and consistency. Mov Disord. 1996; 11:136-142, which is incorporated by reference in its entirety.
# as §1
# Valbenazine was supplied as orally administered capsules containing 20 or 40 mg of valbenazine (free base equivalents as the ditosylate salt). Subjects must swallow the capsules with approximately 4 ounces of water or other liquid, with or without food.
# During the dose-adjustment period, the investigator could increase a subject's dose to the next dose level if, in the investigator's opinion, the subject has tolerated the study drug at the current dose. Doses were adjusted in a blinded manner; subjects receiving placebo will undergo the dose-adjustment process but will continue to receive placebo. Dose increases were allowed at visits at the end of Weeks 2, 4, and 6. If the subject had not tolerated the current dose, the investigator could decrease the subject's dose at any time during the dose adjustment period (the 40 mg dose can be decreased to 20 mg). Doses were to be decreased 1 dose level at a time and subjects could have multiple dose decreases during the dose-adjustment period; subjects who were unable to tolerate the 20 mg dose could remain in the study but study drug dosing was discontinued.
# During the maintenance period (beginning after the Week 8 visit through the end of Week 12), the subject's dose was maintained. If the subject could not tolerate the maintenance dose, the investigator could reduce the subject's dose a single time by 1 dose level (unless the subject is receiving 20 mg); if the subject could not tolerate the lower dose, he/she could remain in the study but study drug dosing was discontinued.
# The primary endpoint for the study was change from baseline to maintenance in the Unified Huntington Disease Rating Scale total maximal chorea (TMC). […]
smiles,measurement,setting,value
"COc1cc2c(cc1OC)[C@H]1C[C@@H](OC(=O)[C@@H](N)C(C)C)[C@H](CC(C)C)CN1CC2 [Valbenazine, (S)-2-amino-3-methyl-butyric acid (2R,3R,11bR)-3-isobutyl-9,10-dimethoxy-1,3,4,6,7,11b-hexahydro-2H-pyrido[2,1-a]isoquinolin-2-yl ester]",CGI-C response rate difference between treatment groups (valbenazine minus placebo),subjects with HD [1]; Week 2,"follows: Week 2 (7.71% [95% CI: −0.93, 17.87], nominal p = 0.1157),"
same,CGI-C response rate difference between treatment groups (valbenazine minus placebo),subjects with HD [1]; Week 4,"Week 4 (20.42% [95% CI: 7.53, 33.00], nominal p = 0.0012), Week 6"
same,CGI-C response rate difference between treatment groups (valbenazine minus placebo),subjects with HD [1]; Week 6,"(20.14% [95% CI: 4.04, 35.89], nominal p = 0.0151), Week 8"
same,CGI-C response rate difference between treatment groups (valbenazine minus placebo),subjects with HD [1]; Week 8,"(34.50% [95% CI: 16.46, 49.76], nominal p = 0.0001), and Week 10"
same,CGI-C response rate difference between treatment groups (valbenazine minus placebo),subjects with HD [1]; Week 10,"(24.80% [95% CI: 6.55, 41.18], nominal p = 0.0065)."
same,"CGI-C @ week 12, % responders","subjects with HD [1]; Week 12, valbenazine group",42.9%
same,"CGI-C @ week 12, % responders, Difference","subjects with HD [1]; Week 12, valbenazine vs placebo",29.7%
same,onset of improvement of chorea symptoms (TMC by study visit),"subjects with HD [2]; FIG. 4, post-hoc analysis vs placebo",noted as early as week 2
same,TMC score LS mean difference between treatment groups (valbenazine minus placebo),"subjects with HD [2]; Week 2, on-site assessments","minus placebo) were as follows: Week 2 (−1.26 [95% CI: −2.18, −0.34],"
same,TMC score LS mean difference between treatment groups (valbenazine minus placebo),"subjects with HD [2]; Week 4, on-site assessments","nominal p = 0.0077), Week 4 (−2.05 [95% CI: −3.12, −0.98],"
same,TMC score LS mean difference between treatment groups (valbenazine minus placebo),"subjects with HD [2]; Week 6, on-site assessments","nominal p = 0.0002), Week 6 (−1.69 [95% CI: −2.83, −0.55], nominal"
same,TMC score LS mean difference between treatment groups (valbenazine minus placebo),"subjects with HD [2]; Week 8, on-site assessments","p = 0.0041), Week 8 (−2.29 [95% CI: −3.46, −1.13], nominal"
same,TMC score LS mean difference between treatment groups (valbenazine minus placebo),"subjects with HD [2]; Week 10, on-site assessments","p = 0.0002); Week 10 (−3.10 [95% CI: −4.36, −1.84], nominal"
same,TMC score LS mean difference between treatment groups (valbenazine minus placebo),"subjects with HD [2]; Week 12, on-site assessments","p < 0.0001), and Week 12 (−3.22 [95% CI: −4.53, −1.91], nominal"
same,placebo-adjusted mean reduction in TMC score,"subjects with HD [2]; baseline to maintenance, vs placebo",3.2 units
same,LS mean change from screening period baseline to maintenance in TMC scores,"subjects with HD [2]; central video rater assessments, valbenazine group",in TMC scores as assessed by the central video raters was −3.51
same,"TMC score treatment difference, screening period baseline to maintenance","subjects with HD [2]; central video rater assessments, valbenazine vs placebo","of −2.59 (95% CI: −3.76, −1.41); p < 0.0001 (nominal), and was consistent"
same,"TMC CFSPB @ Maintenance, LS Mean","subjects with HD [2]; change from screening period baseline to maintenance (average of Week 10 and Week 12), on-site assessments, once-daily valbenazine up to 80 mg, N=64",−4.6
same,"TMC CFSPB @ Maintenance, LS Mean, Difference","subjects with HD [2]; valbenazine vs placebo, on-site assessments",−3.16
